The record followed here is article PMC10286459 (Cell & Bioscience, 2023).

Non-standard residues stand in square brackets, D forms with d. Residues, ends and D or L forms follow the SMILES beside them.

The target of one series is T1, full-length FOXM1 (Homo sapiens, UniProt Q08050).
T1 sequence (Q08050 703-763 limits assumed): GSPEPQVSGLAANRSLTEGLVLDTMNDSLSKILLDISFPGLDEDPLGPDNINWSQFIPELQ
Description: Biotin-peptide Pulldown with Streptavidin Magnetic Beads. The format is binding. Conditions: biotin-labeled peptide, cell lysates (500 µg) with endogenous or exogenous FOXM1; Western Blotting. The procedure: SDS-PAGE gel electrophoresis and Coomassie brilliant blue staining were performed to measure peptide stability. […] Cells were collected at different post-treatment time points (0, 1, 2, 4, 8, 16, 24, 36, 48 h). […] D The docking of peptide P22 (106–126) to the FOXM1 C-terminus (PDB ID 6OSW) was created by Rosetta FlexPepDock and PyMOL. Left, the interface of peptide-protein interaction, the peptide was shown in cyan, and the C-terminus of FOXM1 was shown according to its electrostatic potential. Right, hydrogen bonds are formed by residues at the interface of peptide and protein interaction. […] Streptavidin magnetic beads were added to lysates to pull down the biotin-peptides/protein complexes. […] M1-21mut was used as the control.
Background: Immunoblotting shows a protein as a band on a membrane.

Series [1] addresses T2, interaction between FOXM1 and PLK1 (Homo sapiens, UniProt Q08050).
T2 construct: expressed in transfected cells; host or cells: MDA-MB-231 stably infected with pLVX-TetOne-Flag-FOXM1b lentivirus (231-Flag-FOXM1-Ind), doxycycline-induced
Description: Co-IP in 231-Flag-FOXM1-Ind cells. The format is cell-based. Conditions: doxycycline 200 ng/mL 24 h, M1-21 10, 20 µM or TAT-106-126 20, 40, 80 µM for 6 h. From the text:
Number of repetitions = 3. […] Number of repetitions = 3. […] Number of repetitions = 3. […] GAPDH was used as a loading control.

The next series deals with mouse erythrocytes. Description: Hemolysis assay. Particulars: 800 µg/mL, mouse blood 10% (v/v) in normal saline, 37℃ for 3 h, absorbance 540 nm. The procedure: (§1) One week later, the animals’ different organs were harvested and subjected to tissue sectioning and H&E staining. Photos were taken by inverted microscope (400×, Nikon TE2000). […] The mice’s diet and activity were observed continuously for 14 days. […] Water and PBS were used as hemolysis positive and negative controls, respectively. The absorbance of the samples was measured at 540 nm and used to calculate the Hemolysis rate % = [(OD Sample - OD Negative) / (OD Positive - OD Negative)] × 100%. E Immunogenicity analysis of M1-21. […] Blood samples were collected from mice at different time points (Week 2 to Week 8) and the absorption of anti-M1-21 antibody in serum (1:1000 dilution) was measured by ELISA. HRP-conjugated anti-mouse IgG was used as an ELISA secondary antibody.
(§2) Hemolysis assays were performed with fresh mouse blood collected and dispersed in normal saline (NaCl 0.9%) at 10% (v/v). […] Sterile double distilled water and PBS were used as positive and negative controls, respectively. Immunogenicity of M1-21 was detected by ELISA in mice. […] Blood samples were collected from mice at different time points (Week 2 to Week 8). […] ELISA plates were washed twice with PBS and blocked with 3% bovine serum albumin for 2 h. […] Absorption was measured at 492 nm.

The nature of series [2]: Immunogenicity, ELISA of anti-M1-21 antibodies in serum. Type of series: in vivo, mouse. Conditions: ICR/JCL mice, 30 mg/kg/week × 4 weeks I.P., serum Week 2 to Week 8, 1:1000, ELISA 492 nm; except at Week 4. As to the method:
as §1, §2

The subject of series [3] is MDA-MB-231 cells. Briefly: Colony formation assay. Particulars: MDA-MB-231, 200 cells/well, 20 µM, 14 days; versus M1-21mut.
Description: C qPCR was used to verify changes in PCNA and CyclinB1 mRNA levels from panel A samples. […] D MDA-MB-231 cells were treated as panel A and cell lysates were prepared. PCNA and CyclinB1 protein levels were measured by Western blotting. β-actin was used as a loading control. […] The cells were fixed with 4% paraformaldehyde and stained with crystal violet for imaging. The treatment’s ability to form colonies was measured by counting the number of cell colonies in each well. F BALB/c nude mice (female, 6 weeks old) were subcutaneously injected with MDA-MB-231 cells (1 × 10^6 cells/mouse). […] The volume of engrafted tumors was measured every two days and growth curves were obtained at the end of the experiment. The tumor volume (V) was calculated by: V = length × diameter^2 × 1/2. G Images and weight of engrafted tumors on Day 19. H MDA-MB-231 cells were seeded into plates to reach 90% confluence. A 200 µl pipette tip was used to thread a line and then photographed. […] Number of repetitions = 3. […] The levels of mRNA or protein of E-cadherin (E-cad), Vimentin (VIM), and N-cadherin (N-cad) were measured by qPCR or Western blotting, respectively. GAPDH or β-actin was used as a loading control for mRNA or protein. mRNA values represented the mean ± SD of three replicates, and significance was calculated using unpaired t test. *P < 0.05; **P < 0.01; ***P < 0.001 […]
Series [4] relates to spontaneous breast cancers. Description: Spontaneous breast cancer FVB/N MMTV-PyVT mice.
Description: B Cancer tissue was harvested on Day 29 for imaging. The weight of cancer tissue was measured for GraphPad analysis. C The representative sections of the cancer samples of panel A were immunostained with anti-KI-67 antibody (1:200), and anti-CDC25B antibody (1:200) followed by microscope imaging (200×, Nikon TE2000). Scale bar: 200 μm.
FVB/N-Tg(MMTV-PyVT)634Mul/J transgenic mice [46] were purchased from The Jackson Laboratory (Bar Harbor, ME, USA). […] The mice were photographed every week thereafter. Cancer tissue from the animals was harvested on Day 29. The weight of the total cancer tissue from each mouse was measured and immunostaining sections of the cancer sample were performed for selected proteins.
The mice were imaged at different time points after treatment (Week 0, 1, 2, and 3). The number of tumors observed in each mouse was counted.
The test system of series [5] is FOXM1-binding promoters (6xFOXM1 binding sequence-containing promoter, − 1.8 kb promoter of CDC25B). Briefly: Dual luciferase reporter, FOXM1-binding promoters. Particulars: HEK-293T, cotransfection with pCMV-FOXM1; M1-21 5, 10, 20 µM for 24 h; n = 3. Background: Reporter assays use an easily measured gene product as a stand-in for the process of interest.
Description: C Reporter plasmids containing the luciferase gene downstream of the 6×FOXM1 binding sequence (6×FOXM1 Binding-Luc, 0.4 µg) or the − 1.8 kb CDC25B promoter (CDC25B pro(-1.8 kb)-Luc, 0.4 µg) were co-transfected with pCMV-FOXM1 (0.6 µg) into HEK-293T cells, plus pRL-CMV plasmid (20 ng/well) as a loading control. […] Then cell lysates were prepared and used for the measurement of dual Luciferase activities. Number of repetitions = 3. […] F Reporter plasmids containing the luciferase gene downstream of the − 1.4 kb PLK1 promoter (PLK1 pro(-1.4 kb)-Luc, 0.4 µg) were co-transfected with pCMV-FOXM1 (0.6 µg) into HEK-293T cells, plus pRL-CMV plasmid (20 ng/well) as loading control. […] Then cell lysates were prepared and used to measure dual Luciferase activity. Number of repetitions = 3.
HEK-293T cells (1×10^5 cells/well in 12-well plates) were transfected (EZ Trans, LIFE iLAB BIO, China) with certain luciferase reporter vectors (0.4 µg) and expression vector (0.6 µg) (or control plasmid (0.6 µg)). pRL-CMV plasmid (20 ng) was used as loading control for each transfection. 8 Hours after transfection, the medium was replaced and inhibitory peptides (or control peptide) with different concentrations were added. Finally, luciferase activity was measured 48 hours later with the Dual luciferase Assay system (Promega, USA) according to the manufacturer's instructions.
The subject of series [6] is MDA-MB-231 cells. Briefly: mRNA and protein levels of marker and target genes (qPCR, Western blotting). In general terms: Real-time PCR tracks product formation cycle by cycle.
Description: The levels of mRNA or protein of E-cadherin (E-cad), Vimentin (VIM), and N-cadherin (N-cad) were measured by qPCR or Western blotting, respectively. GAPDH or β-actin was used as a loading control for mRNA or protein. mRNA values represented the mean ± SD of three replicates, and significance was calculated using unpaired t test. *P < 0.05; **P < 0.01; ***P < 0.001
The mRNA levels of PLK1, CDC25B, and Vimentin (VIM) were measured by qPCR. GAPDH was used as a loading control. […] The protein levels of PLK1, CDC25B, and Vimentin (VIM) were measured by Western blotting. β-actin was used as a loading control.
FOXM1 mRNA was detected by qPCR. GAPDH was used as a loading control.
Setting [7] is: 20 mg/kg intraperitoneal once daily for 28 days, Day 29.
The mark [8] stands for this setting: MDA-MB-231, 10 µM, 24 h, qPCR, Western blotting.

T2 sequence (Q08050 1-748 isoform Q08050-2): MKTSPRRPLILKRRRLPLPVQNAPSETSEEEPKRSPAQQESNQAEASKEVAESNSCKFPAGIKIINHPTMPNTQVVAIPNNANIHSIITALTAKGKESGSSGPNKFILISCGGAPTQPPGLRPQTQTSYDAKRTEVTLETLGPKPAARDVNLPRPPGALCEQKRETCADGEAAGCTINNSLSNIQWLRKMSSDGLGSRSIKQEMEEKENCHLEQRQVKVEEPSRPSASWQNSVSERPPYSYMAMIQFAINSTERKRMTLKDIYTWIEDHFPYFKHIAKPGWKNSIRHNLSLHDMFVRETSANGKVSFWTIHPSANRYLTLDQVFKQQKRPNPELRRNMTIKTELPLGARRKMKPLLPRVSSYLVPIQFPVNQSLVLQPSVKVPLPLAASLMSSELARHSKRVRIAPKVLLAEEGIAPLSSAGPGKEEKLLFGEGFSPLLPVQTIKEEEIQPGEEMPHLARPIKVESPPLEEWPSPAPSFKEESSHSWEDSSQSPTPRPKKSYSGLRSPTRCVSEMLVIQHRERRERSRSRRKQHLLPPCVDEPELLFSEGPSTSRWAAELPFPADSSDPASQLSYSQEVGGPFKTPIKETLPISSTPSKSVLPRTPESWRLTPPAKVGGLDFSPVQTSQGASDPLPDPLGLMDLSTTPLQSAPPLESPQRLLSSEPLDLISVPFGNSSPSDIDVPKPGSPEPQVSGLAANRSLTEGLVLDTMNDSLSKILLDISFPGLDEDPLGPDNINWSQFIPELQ

As for `CC[C@@H](C)[C@@H](NC(=O)[C@@H](CC(C)C)NC(=O)[C@H](NC(=O)[C@@H](CO)NC(=O)[C@@H](CS)NC(=O)CNC(=O)CNC(=O)[C@@H](C)NC(=O)[C@H]1CCCN1C(=O)[C@H](NC(=O)[C@@H](CCC(N)=O)NC(=O)[C@H]1CCCN1C(=O)[C@H]1CCCN1C(=O)CNC(=O)[C@@H](CC(C)C)NC(=O)[C@@H](CCCNC(=N)N)NC(=O)[C@H]1CCCN1C(=O)[C@@H](CCC(N)=O)NC(=O)[C@H](NC(=O)[C@H](N)CCC(N)=O)[C@H](C)O)[C@H](C)O)[C@H](C)CC)C(=O)N[C@H](Cc1ccccc1)C(=O)N[C@H](CCCNC(=N)N)C(=O)N[C@H](CCCNC(=N)N)C(=O)N[C@H](CCCNC(=N)N)C(=O)N[C@H](CCC(N)=O)C(=O)N[C@H](CCCNC(=N)N)C(=O)N[C@H](CCCNC(=N)N)C(=O)N[C@H](CCCCN)C(=O)N[C@H](CCCCN)C(=O)N[C@H](CCCNC(=N)N)C(=O)NCC(=O)O` [M1-21] (H-[dQ][dT][dQ][dP][dR][dL]G[dP][dP][dQ][dT][dP][dA]GG[dC][dS][dI][dL][dI][dF][dR][dR][dR][dQ][dR][dR][dK][dK][dR]G-OH; N-terminus and C-terminus assumed), the “binding to full-length FOXM1 in Pulldown” value at full-length FOXM1 was “bound”. Also, the “interaction between FOXM1 and PLK1 (Co-IP)” value in series [1] was “disrupted the interaction”. For the same compound, the hemolysis to erythrocytes entry in the series with mouse erythrocytes is “very mild hemolysis”. The “M1-21-specific antibody generation in serum” value in series [2] is recorded as “relatively low levels”. Besides, the colony formation entry with MDA-MB-231 cells [3] was “inhibitory effects”. Moreover, in series [4] (setting [7]), the “mice with therapeutic benefit, of the seven treated” value was “six mice had obvious therapeutic benefits and even one mouse was cancer-free”; the “weight of total cancer tissue from each mouse” value is on record as “inhibited cancer progression”. Also, the “number of formed cancers” value in series [4] (20 mg/kg intraperitoneal once daily for 28 days, n = 7, versus PBS n = 4) was “dramatically decreased”. Moreover, the “levels of KI-67 and CDC25B in cancer sections (immunostaining)” value in series [4] (20 mg/kg once daily for 28 days) is “dramatically down-regulated”. Further, in series [5], the “FOXM1-mediated stimulation on FOXM1-binding promoters (luciferase)” value was “abrogated FOXM1-mediated stimulation”. In addition, in the series on MDA-MB-231 cells [6] (setting [8]), the “levels of epithelial marker E-cadherin” value was “increased”; the “levels of mesenchymal markers Vimentin and N-cadherin” value was “decreased”. For the same compound, the “mRNA and protein levels of PCNA and Cyclin B1” value in the series with MDA-MB-231 cells [6] (MDA-MB-231, 20 µM for 24 h, versus M1-21mut) is recorded as “downregulated”. Further, the “levels (mRNA or protein) of FOXM1 itself” value in the series on MDA-MB-231 cells [6] (MDA-MB-231, 20 µM, and spontaneously developed cancer tissues, Fig. S21) is “decrease the levels”. Further, the “mRNA and protein levels of CDC25B, PLK1 and Vimentin” value with MDA-MB-231 cells [6] (MDA-MB-231, 20 µM, qPCR 24 h, Western blotting 1.5-36 h) was “dramatically repressed the expression”.
